Values after ≈ are worked out from the molar mass of the structure shown. Where a name gives a salt, the structure may show the parent alone. Square brackets hold non-standard residues; d marks the D form. Peptide text beside a SMILES is read from it. NMeR = CN[C@@H](CCCNC(=N)N)C(=O)O; 3Amb = NCc1cccc(C(=O)O)c1; dAbu = CC[C@@H](N)C(=O)O
Key:
platelet aggregation [1] = assay: In vivo platelet aggregation, dogs (ex vivo aggregation response); conditions: dog, capsule of 10 mg BID for 4 days (15 mg on day 3)
Experimental: Three beagle dogs were therefore infused with compound B while monitoring blood pressure, heart rate, PT (prothrombin time), and aPTT (activated partial thromboplastin time). […] In a second study, a dog was treated with a capsule of 10 mg of compound A, BID for 4 days (15 mg on day 3) prior to antibody testing. […] Four hours after the last oral dose of compound A, a dose of pentobarbitol and the monoclional antibody ([…]-9F7) was infused by a i.v. bolus injection. Each bolus contained a 5-fold molar excess over drug plasma levels (about 50 mg of Mab 9F7). A control dog was given identical amounts of antibody without compound A oral dosing.

[2] = Total and free plasma levels of compound B in dog; format: in vivo; conditions: three bolus infusions of Mab 9F7, FIG. 11
Experimental: In a second study, a dog was treated with a capsule of 10 mg of compound A, BID for 4 days (15 mg on day 3) prior to antibody testing. […] Four hours after the last oral dose of compound A, a dose of pentobarbitol and the monoclional antibody (P187-9F7) was infused by a i.v. bolus injection. Each bolus contained a 5-fold molar excess over drug plasma levels (about 50 mg of Mab 9F7). A control dog was given identical amounts of antibody without compound A oral dosing. Blood samples were collected for aggregation assays at 5, 15, 30 and 60 minutes after each bolus administration of antibody, plasma levels of Mab 9F7, and total and free plasma levels of compound B.
This method involves the extraction of compound B and an internal standard (compound F, shown hereinafter) from acidified dog plasma with a C18 solid phase extraction column. Analysis is by reverse phase high performance liquid chromatography with fluorescence detection. Calibration standards were prepared in human heparinized plasma. Quality control pools were prepared in dog plasma and quantified using the human calibration curve. A linear weighted (1/concentration squared) least squares regression analysis was used to quantify samples. This method was validated with a minimum quantifiable level of 1.00 ng/mL. […]
Removed the samples to be analyzed from the freezer and thawed. […] The filtrate was then analyzed by the method given below. […]

[3] = Half-life of compound B in guinea pig; format: in vivo
[4] = Removal from circulation / elimination half-life; format: in vivo; conditions: for route of removal from circulation: in vivo; for change of elimination half-life with decreased creatinine clearance: renal impairment
[5] = test system: human platelet rich plasma; assay: Aggregation of human platelet rich plasma; format: cell-based; conditions: read-out: inhibition of aggregation by the compound itself; for inhibition at 0.05 µM: 5×10^−8 M
Experimental: Human platelet rich plasma (“PRP”) was prepared by centrifugation of citrated whole blood at 970×g for 3.5 minutes at room temperature. PRP was carefully removed from red cells and placed in 50 mL conical tubes. Platelet aggregation was measured as an increase in light transmission in an aggregometer (Bio/Data model PAP-4, Horsham, Pa.) using ADP (20 μM) or collagen (4 μg/mL) as the agonist.
Antibodies produced according to Example 4 were assayed in aggregation for their ability to neutralize (at 60 nM) the GPIIb/IIIa antagonists compound B (5×10^−8 M), compound D (1×10^−7 M), and Merck compound MK383 (5×10^−8 M), as a means of screening which ones recognized the antagonists in a useful manner. The levels of antiplatelet compounds used provided at least 50 percent inhibition of aggregation by themselves. Results are illustrated in FIG. 3.
Collagen-induced platelet aggregation was measured in the presence of 50 nM compound B or 100 nM compound D over 3 minutes in the presence or absence of Mab 9F7 inclusion at 60 nM.

platelet aggregation [6] = assay: IC50 values of antiplatelet compounds (FIG. 1 legend); format: cell-based
[7] = test system: heparinized human whole blood; assay: Activated clotting time (ACT) in heparinized human whole blood, Hemochron-8000; format: cell-based; conditions: 1.4 Units/mL heparin; FIG. 1
Source text: This process can be used to calculate a standardized concentration curve for various known concentrations of anti-platelet compounds. The process can also be used to measure activated clotting times for use in calculating the ACT number for the processes of the invention.
A. Blood was drawn from a human volunteer into a syringe containing heparin. The heparin to whole blood ratio was 1:10 such that the final concentration of heparin in the syringe was 1.4 Units/mL.
B. The Hemochron™-8000 was set up to run ACT using the P-215 tubes from the same manufacturer (International Technidyne).
A. A 1 mL sample of the above heparinized blood was admixed and maintained (incubated) with 2.5-10 μl of antagonist compound or saline for 5 minutes at room temperature.
B. The Hemochron™ was started as 400 μl of the test sample was pipetted into the P-215 tube. The tube contents were gently mixed, placed into the Hemochron™ and turned one revolution until the light on the instrument came on.
C. Step B was repeated for the second channel of the instrument within 30 seconds to give an average activated clotting time. […]
The activated clotting time was first measured (in seconds) for control whole blood from each donor containing only 1.4 Units/mL of heparin. The clotting times were then measured as in Example 1 by varying concentrations of antiplatelet compounds B and D in addition to heparin for each donor. […]

platelet aggregation [8] = conditions: 20 mg/kg infused into femoral vein of anesthetized dogs; cited from earlier work

With `C#C[C@H](CC(=O)OCC)NC(=O)CCC(=O)Nc1ccc(C(=N)N)cc1.Cl` [Compound A, ethyl 3S-[[4-[[4-(aminoiminomethyl)phenyl]-amino]-1,4-dioxobutyl]amino]-4-pentynoate monohydrochloride] the “inhibition of platelet function” value (platelet aggregation [1]) was 54%.
With `C#C[C@H](CC(=O)O)NC(=O)CCC(=O)Nc1ccc(C(=N)N)cc1` [Compound B, 3S-[[4-[[4-(aminoiminomethyl)phenyl]amino]-1,4-dioxobutyl]amino]-4-pentynoic acid] the “levels of total compound B (free plus antibody bound)” value [2] was “increased throughout the three infusions”, the half-life [3] was “short” and the “route of removal from circulation” value [4] was “almost exclusively by the kidney”. For the same molecule, the “change of elimination half-life with decreased creatinine clearance” value [4] was “appreciable increases”, the inhibition at 0.05 µM [5] was at least 50% and the IC50 (platelet aggregation [6]) was 0.027 µg/mL (≈ 0.0817 µM). For the same molecule, the “effect of compound concentration on activated clotting time” value [7] was “directly affect the activated clotting time”.
In the case of `N=C(N)c1ccc(N2CC[C@H](NC(=O)NCCC(=O)O)C2=O)cc1` [Compound D, 3-[[[[1-[4-(aminoiminomethyl)phenyl]-2-oxo-pyrrolidin-3S-yl]amino]carbonyl]amino]propanoic acid], the “route of removal from circulation” value [4] is reported as “almost exclusively by the kidney”, the “change of elimination half-life with decreased creatinine clearance” value [4] is reported as “appreciable increases” and the inhibition at 0.1 µM ([5]; 1×10^−7 M) is reported as at least 50%. For the same molecule, the IC50 (platelet aggregation [6]) was 0.043 µg/mL (≈ 0.129 µM) and the “effect of compound concentration on activated clotting time” value [7] was “directly affect the activated clotting time”.
In the case of `CC[C@H]1NC(=O)c2cccc(c2)CNC(=O)[C@H](CC(=O)O)NC(=O)CNC(=O)[C@H](CCCNC(=N)N)N(C)C1=O` [DMP728, cyclic [D-2-aminobutyryl-N2-methyl-L-arginyl-glycyl-L-aspartyl-3-aminomethyl-benzoic acid] methanesulfonic acid salt] (cyclo([NMeR]GD[3Amb][dAbu])), the “duration of inhibition of platelet aggregation” value (platelet aggregation [8]) is given as “up to 210 minutes” and the “inhibition of platelet aggregation, measured ex vivo” value (platelet aggregation [8]) is given as “nearly complete inhibition”.
Molecule `CCCCS(=O)(=O)N[C@@H](Cc1ccc(OCCCCC2CCNCC2)cc1)C(=O)O` [MK383, N-(butylsulfonyl)-0-(4-(4-piperidinyl)butyl)-L-tyrosine, monohydrochloride, reference compound] has an inhibition at 0.05 µM [5] of at least 50%.

Reference: US20020177172A1, “RESTORATION OF PLATELET AGGREGATION BY ANTIBODY ADMINISTRATION AFTER GPIIB/IIIA ANTAGONIST TREATMENT” (priority 1996, published 2002)
